Measured values from article PMC9848300, “Discovery of novel enasidenib analogues targeting inhibition of mutant isocitrate dehydrogenase 2 as antileukaemic agents” (Journal of Enzyme Inhibition and Medicinal Chemistry, 2023).

Experiments:
Format in all cases: cell-based
UACC-62 = experiment: NCI 60 antitumor screening (single dose / five doses); conditions: Homo sapiens; UACC-62 (melanoma), single dose 10 μM; read-out: Growth inhibition percentage (GI %)
[1] = system: 60 human subpanel cancer cell lines; experiment: NCI 60 antitumor screening, mean over the panel (single dose); conditions: mean over 60 cancer cell lines, single dose 10 μM
In short: (§1)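 Single-dose NCI protocol, 10 μM, triplicate. Readout G%; GI% = 100 − G%.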

HCT-116 = experiment: NCI 60 antitumor screening (single dose / five doses); conditions: Homo sapiens; HCT-116 (colon cancer), single dose 10 μM; read-out: Growth inhibition percentage (GI %)
LOX IMVI = experiment: as above; conditions: Homo sapiens; LOX IMVI (melanoma), single dose 10 μM; read-out: Growth inhibition percentage (GI %)
RXF 393 = experiment: as above; conditions: Homo sapiens; RXF 393 (renal cancer), single dose 10 μM; read-out: Growth inhibition percentage (GI %)
MDA-MB-435 = experiment: as above; conditions: Homo sapiens; MDA-MB-435 (melanoma), single dose 10 μM; read-out: Growth inhibition percentage (GI %)
SN 12C = experiment: as above; conditions: Homo sapiens, SN12C; SN 12C (renal cancer), single dose 10 μM; read-out: Growth inhibition percentage (GI %)
NCI-H23 = experiment: NCI 60 antitumor screening (single dose); conditions: Homo sapiens; NCI-H23 (non-small cell lung cancer), single dose 10 μM; read-out: Growth inhibition percentage (GI %)
In short: as §1

OVCAR-4 = experiment: NCI 60 antitumor screening (single dose); conditions: Homo sapiens; OVCAR-4 (ovarian cancer), single dose 10 μM; read-out: Growth inhibition percentage (GI %)
In short: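 Compounds were tested at a single 10 μM dose against the NCI 60-cell-line panel (nine tumour types), in triplicate. Growth was recorded as percent growth (G%) of treated cells, and growth inhibition was taken as GI% = 100 − G%.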

SK-OV-3 = experiment: NCI 60 antitumor screening (single dose); conditions: Homo sapiens; SK-OV-3 (ovarian cancer), single dose 10 μM; read-out: Growth inhibition percentage (GI %)
In short: as §1

COLO 205 = experiment: NCI 60 antitumor screening (single dose / five doses); conditions: Homo sapiens; COLO 205 (colon cancer), single dose 10 μM; read-out: Growth inhibition percentage (GI %)
EKVX = experiment: as above; conditions: Homo sapiens; EKVX (non-small cell lung cancer), single dose 10 μM; read-out: Growth inhibition percentage (GI %)
SF-295 = experiment: as above; conditions: Homo sapiens; SF-295 (CNS cancer), single dose 10 μM; read-out: Growth inhibition percentage (GI %)
A498 = experiment: as above; conditions: Homo sapiens; A498 (renal cancer), single dose 10 μM; read-out: Growth inhibition percentage (GI %)
IGROV1 = experiment: as above; conditions: Homo sapiens, IGROV-1; IGROV1 (ovarian cancer), single dose 10 μM; read-out: Growth inhibition percentage (GI %)
MOLT-4 = experiment: as above; conditions: Homo sapiens; MOLT-4 (leukaemia), single dose 10 μM; read-out: Growth inhibition percentage (GI %)
SK-MEL-5 = experiment: as above; conditions: Homo sapiens; SK-MEL-5 (melanoma), single dose 10 μM; read-out: Growth inhibition percentage (GI %)
DU-145 = experiment: as above; conditions: Homo sapiens; DU-145 (prostate cancer), single dose 10 μM; read-out: Growth inhibition percentage (GI %)
MDA-MB-231/ATCC = experiment: as above; conditions: Homo sapiens; MDA-MB-231/ATCC (breast cancer), single dose 10 μM; read-out: Growth inhibition percentage (GI %)
NCI/ADR-RES = experiment: as above; conditions: Homo sapiens; NCI/ADR-RES (ovarian cancer), single dose 10 μM; read-out: Growth inhibition percentage (GI %)
MDA-MB-468 = experiment: as above; conditions: Homo sapiens; MDA-MB-468 (breast cancer), single dose 10 μM; read-out: Growth inhibition percentage (GI %)
HL-60(TB) = experiment: as above; conditions: Homo sapiens; HL-60(TB) (leukaemia), single dose 10 μM; read-out: Growth inhibition percentage (GI %)
SK-MEL-28 = experiment: as above; conditions: Homo sapiens; SK-MEL-28 (melanoma), single dose 10 μM; read-out: Growth inhibition percentage (GI %)
SK-MEL-2 = experiment: as above; conditions: Homo sapiens; SK-MEL-2 (melanoma), single dose 10 μM; read-out: Growth inhibition percentage (GI %)
SNB-75 = experiment: as above; conditions: Homo sapiens; SNB-75 (CNS cancer), single dose 10 μM; read-out: Growth inhibition percentage (GI %)
BT-549 = experiment: as above; conditions: Homo sapiens; BT-549 (breast cancer), single dose 10 μM; read-out: Growth inhibition percentage (GI %)
HCT-15 = experiment: as above; conditions: Homo sapiens; HCT-15 (colon cancer), single dose 10 μM; read-out: Growth inhibition percentage (GI %)
SR = experiment: as above; conditions: Homo sapiens; SR (leukaemia), single dose 10 μM; read-out: Growth inhibition percentage (GI %)

| SMILES | inhibition at 10 µM (UACC-62) | Mean GI % [1] | inhibition at 10 µM (HCT-116) | inhibition at 10 µM (LOX IMVI) | inhibition at 10 µM (RXF 393) | inhibition at 10 µM (MDA-MB-435) | inhibition at 10 µM (SN 12C) | inhibition at 10 µM (NCI-H23) | inhibition at 10 µM (OVCAR-4) | inhibition at 10 µM (SK-OV-3) | inhibition at 10 µM (COLO 205) | inhibition at 10 µM (EKVX) | inhibition at 10 µM (SF-295) | inhibition at 10 µM (A498) | inhibition at 10 µM (IGROV1) | inhibition at 10 µM (MOLT-4) | inhibition at 10 µM (SK-MEL-5) | inhibition at 10 µM (DU-145) | inhibition at 10 µM (MDA-MB-231/ATCC) | inhibition at 10 µM (NCI/ADR-RES) | other results |
| --- | --- | --- | --- | --- | --- | --- | --- | --- | --- | --- | --- | --- | --- | --- | --- | --- | --- | --- | --- | --- | --- |
| Fc1cccc(Cl)c1/C=N/Nc1nc(N/N=C/c2c(F)cccc2Cl)nc(N2CCOCC2)n1 [compound 6l, 2,4-Bis[(E)-2-[(2-Chloro-6-fluorophenyl)methylidene]hydrazin-1-yl]-6-(morpholin-4-yl)-1,3,5-triazine] | 19.8% | 19.00% | 16.4% | 5.3% | 17.8% | 19.4% | 15.3% | 27.2% | 32.8% | 7.59% | 29.6% | 45.5% | 49.5% | 26.9% | 41.4% | 18.2% | 44.9% | 4.76% | 10.7% | 16.8% | inhibition at 10 µM (MDA-MB-468): 24.6%; inhibition at 10 µM (HL-60(TB)): 26.1%; inhibition at 10 µM (SK-MEL-28): 10%; inhibition at 10 µM (SK-MEL-2): 17.1%; inhibition at 10 µM (SNB-75): 9.55%; inhibition at 10 µM (BT-549): -1.45%; inhibition at 10 µM (HCT-15): 22.1%; inhibition at 10 µM (SR): 27.8% |
| Brc1cccc(/C=N/Nc2nc(N/N=C/c3cccc(Br)c3)nc(N3CCCCC3)n2)c1 [compound 7c, 2,4-Bis[(E)-2-[(3-Bromophenyl)methylidene]hydrazin-1-yl]-6-(piperidin-1-yl)-1,3,5-triazine] | 14.5% | 2.56% | 13.5% | -5.74% | -16.1% | 4.57% | -1.41% | -5.83% | 11.6% | -9% | -5.18% | 22.4% | 2.91% | 12.2% | -0.7% | 31.6% | 28.6% | -1.2% | -8.36% | 9.29% | inhibition at 10 µM (MDA-MB-468): 9.99%; inhibition at 10 µM (HL-60(TB)): 7.75%; inhibition at 10 µM (SK-MEL-28): 0.82%; inhibition at 10 µM (SK-MEL-2): -2.13%; inhibition at 10 µM (SNB-75): -17.3%; inhibition at 10 µM (BT-549): -13.1%; inhibition at 10 µM (HCT-15): 16.1%; inhibition at 10 µM (SR): 12.9% |
| Clc1cccc(/C=N/Nc2nc(N/N=C/c3cccc(Cl)c3)nc(N3CCCCC3)n2)c1 [compound 7d, 2,4-Bis[(E)-2-[(3-Chlorophenyl)methylidene]hydrazin-1-yl]-6-(piperidin-1-yl)-1,3,5-triazine] | 20.8% | 7.03% | 2.75% | -4.97% | 6.56% | 9.61% | 7.63% | 2.24% | 9.83% | -9.25% | -1.88% | 21.6% | 7.02% | 7.8% | -4.79% | 31.3% | 19.4% | 5.38% | -16.1% | 4.8% | inhibition at 10 µM (MDA-MB-468): 23.7%; inhibition at 10 µM (HL-60(TB)): 3.01%; inhibition at 10 µM (SK-MEL-28): 3.79%; inhibition at 10 µM (SK-MEL-2): 13.9%; inhibition at 10 µM (SNB-75): -2.48%; inhibition at 10 µM (BT-549): 5.13%; inhibition at 10 µM (HCT-15): 20.2%; inhibition at 10 µM (SR): 25.4% |
| Fc1cccc(/C=N/Nc2nc(N/N=C/c3cccc(F)c3)nc(N3CCCCC3)n2)c1 [compound 7e, 2,4-Bis[(E)-2-[(3-Fluorophenyl)methylidene]hydrazin-1-yl]-6-(piperidin-1-yl)-1,3,5-triazine] | 25.8% | 10.18% | 9.65% | 14.2% | -12.5% | 8.23% | 5.08% | 9.62% | 13.7% | -14.6% | -0.08% | 29.3% | 15.6% | 15.7% | 9.61% | 40.4% | 32.1% | 2.92% | -0.43% | 23.9% | inhibition at 10 µM (MDA-MB-468): 9.17%; inhibition at 10 µM (HL-60(TB)): 31.9%; inhibition at 10 µM (SK-MEL-28): 9.32%; inhibition at 10 µM (SK-MEL-2): 0.55%; inhibition at 10 µM (SNB-75): -14.6%; inhibition at 10 µM (BT-549): -5.92%; inhibition at 10 µM (HCT-15): 29.2%; inhibition at 10 µM (SR): 31.9% |
